In patent publication US20080214582A1, “Purine Derivatives as Inhibitors of Receptor Tyrosine Kinase Activity” (priority 2005, published 2008) one finds IC50 data, which are given here for 8 compounds.

Structures are written as SMILES.

One assay has as its target Tie-2 kinase (Homo sapiens, UniProt Q02763). Kind of assay: Tie-2 kinase inhibition (flashplate, poly(Glu,Tyr), 33P-ATP). Type of assay: biochemical. The protocol:
The TIE-2 tests can be carried out, for example, analogously to the methods indicated in WO 02/44156.
The assay determines the inhibiting activity of the substances to be tested in the phosphorylation of the substrate poly(Glu, Tyr) by Tie-2 kinase in the presence of radioactive ^33P-ATP. The phosphorylated substrate binds to the surface of a “flashplate” microtitre plate during the incubation time. After removal of the reaction mixture, the microtitre plate is washed a number of times and the radioactivity on its surface is subsequently measured. An inhibiting effect of the substances to be measured results in lower radioactivity compared with an undisturbed enzymatic reaction.

The next assay has as its target T1, VEGFR (KDR) (Homo sapiens, UniProt P35968).
T1 construct: cloning the cytoplasmic domain of the KDR kinase as an in frame fusion at the carboxyl terminus of the GST gene; made in house; host or cells: Spodoptera frugiperda Sf21 insect cells, baculovirus vector pAcG2T
Kind of assay: VEGF receptor kinase assay (pEY substrate, 33P incorporation). Type of assay: biochemical. The settings on record: kinase inhibition. The protocol: VEGF receptor kinase activity is measured by incorporation of radiolabelled phosphate into 4:1 polyglutamic acid/tyrosine substrate (pEY). The phosphorylated pEY product is trapped on a filter membrane and the incorporation of radiolabelled phosphate is quantified by scintillation counting.
The intracellular tyrosine kinase domains of human KDR (Terman, B. I. et al. Oncogene (1991) Vol. 6, pp. 1677-1683.) and Flt-1 (Shibuya, M. et al. Oncogene (1990) Vol. 5, pp. 519-524) were cloned as glutathione S-transferase (GST) gene fusion proteins. This was accomplished by cloning the cytoplasmic domain of the KDR kinase as an in frame fusion at the carboxyl terminus of the GST gene. Soluble recombinant GST-kinase domain fusion proteins were expressed in Spodoptera frugiperda (Sf21) insect cells (Invitrogen) using a baculovirus expression vector (pAcG2T, Pharmingen).
1. Sf21 cells were infected with recombinant virus at a multiplicity of infection of 5 virus particles/cell and grown at 27° C. for 48 hours. 2. All steps were performed at 4° C. Infected cells were harvested by centrifugation at 1000×g and lysed at 4° C. for 30 minutes with 1/10 volume of lysis buffer followed by centrifugation at 100000×g for 1 hour. The supernatant was then passed over a glutathione Sepharose acid (Pharmacia) equilibrated with lysis buffer and washed with 5 volumes of the same buffer followed by 5 volumes of wash buffer. Recombinant GST-KDR protein was eluted with wash buffer/10 mM reduced glutathione (Sigma) and dialysed against dialysis buffer.
1. Add 5 μl of inhibitor or control to the assay in 50% DMSO. 2. Add 35 μl of reaction mixture containing 5 μl of 10× reaction buffer, 5 μl of 25 mM ATP/10 μCi[^33P]ATP (Amersham) and 5 μl of 10× substrate. 3. Start the reaction by the addition of 10 μl of KDR (25 nM) in enzyme dilution buffer. 4. Mix and incubate at room temperature for 15 minutes. 5. Stop the reaction by the addition of 50 μl of stop solution. 6. Incubate at 4° C. for 15 minutes. 7. Transfer a 90 μl aliquot to filter plate. 8. Aspirate and wash 3 times with wash solution. 9. Add 30 μl of scintillation cocktail, seal plate and count in a Wallace Microbeta scintillation counter.

Sequence of Tie-2 kinase (Q02763 23-1124): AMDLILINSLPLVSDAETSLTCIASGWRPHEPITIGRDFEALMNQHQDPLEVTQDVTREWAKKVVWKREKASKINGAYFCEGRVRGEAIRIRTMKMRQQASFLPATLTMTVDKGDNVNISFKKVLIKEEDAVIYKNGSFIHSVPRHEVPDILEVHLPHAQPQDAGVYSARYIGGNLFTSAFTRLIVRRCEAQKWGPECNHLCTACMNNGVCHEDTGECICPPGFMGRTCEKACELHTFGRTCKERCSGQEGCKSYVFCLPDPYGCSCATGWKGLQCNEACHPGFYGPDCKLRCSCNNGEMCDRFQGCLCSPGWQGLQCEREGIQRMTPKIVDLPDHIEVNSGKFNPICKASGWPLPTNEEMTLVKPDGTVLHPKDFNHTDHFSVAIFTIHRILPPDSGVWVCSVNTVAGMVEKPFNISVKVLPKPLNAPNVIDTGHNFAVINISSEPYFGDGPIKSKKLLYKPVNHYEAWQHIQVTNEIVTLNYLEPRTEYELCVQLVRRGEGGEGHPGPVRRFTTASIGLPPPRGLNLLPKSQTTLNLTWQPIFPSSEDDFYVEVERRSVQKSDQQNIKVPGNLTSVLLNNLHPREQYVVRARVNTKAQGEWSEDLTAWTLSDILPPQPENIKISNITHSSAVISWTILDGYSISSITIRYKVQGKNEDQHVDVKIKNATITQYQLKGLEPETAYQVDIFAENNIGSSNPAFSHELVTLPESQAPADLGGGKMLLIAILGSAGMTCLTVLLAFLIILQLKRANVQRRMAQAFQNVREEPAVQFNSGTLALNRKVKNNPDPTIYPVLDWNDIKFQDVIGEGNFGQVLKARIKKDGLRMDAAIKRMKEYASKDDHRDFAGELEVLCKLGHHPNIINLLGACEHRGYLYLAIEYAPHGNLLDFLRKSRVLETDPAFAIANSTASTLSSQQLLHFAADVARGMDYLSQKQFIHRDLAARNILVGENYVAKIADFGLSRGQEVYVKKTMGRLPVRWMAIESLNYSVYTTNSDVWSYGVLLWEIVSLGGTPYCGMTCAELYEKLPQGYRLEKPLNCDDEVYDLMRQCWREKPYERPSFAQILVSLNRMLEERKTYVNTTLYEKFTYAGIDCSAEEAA
T1 sequence (P35968 786-1356 limits assumed): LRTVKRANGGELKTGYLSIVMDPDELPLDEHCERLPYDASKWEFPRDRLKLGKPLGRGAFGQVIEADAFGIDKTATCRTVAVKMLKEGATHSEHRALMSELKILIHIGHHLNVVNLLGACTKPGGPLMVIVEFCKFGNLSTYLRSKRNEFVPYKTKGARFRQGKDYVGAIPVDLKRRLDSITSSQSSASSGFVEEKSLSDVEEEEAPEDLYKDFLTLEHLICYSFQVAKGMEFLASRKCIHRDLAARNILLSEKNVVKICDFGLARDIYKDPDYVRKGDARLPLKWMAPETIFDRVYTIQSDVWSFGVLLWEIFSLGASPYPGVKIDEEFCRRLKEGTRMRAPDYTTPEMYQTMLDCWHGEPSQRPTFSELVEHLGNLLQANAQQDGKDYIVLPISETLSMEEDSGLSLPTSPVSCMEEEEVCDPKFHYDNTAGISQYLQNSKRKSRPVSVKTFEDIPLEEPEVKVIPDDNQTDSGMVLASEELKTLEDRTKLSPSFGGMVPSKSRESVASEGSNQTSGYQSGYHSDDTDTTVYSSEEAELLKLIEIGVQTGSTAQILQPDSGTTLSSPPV

Take `Nc1ncnc2c1ncn2-c1ccc(NC(=O)Nc2cc(C(F)(F)F)ccc2OC2CCNC2)cc1` (stereo not shown) [Compound 1, 1-[4-(6-aminopurin-9-yl)phenyl]-3-[2-(pyrrolidin-3-yloxy)-5-trifluoromethylphenyl]urea]: the figures for the IC50 at Tie-2 kinase and on VEGFR (KDR) were 34.3 nM and 88 nM, respectively.
On the same counts, the results for `Nc1ncnc2c1ncn2-c1ccc(NC(=O)Nc2cccc(C(F)(F)F)c2)cc1` [Compound 2, 1-[4-(6-aminopurin-9-yl)phenyl]-3-(3-trifluoromethylphenyl)urea] are 14 nM and 3.6 nM.
On the same counts, the results for `Nc1ncnc2c1ncn2-c1ccc(NC(=O)Nc2cc(C(F)(F)F)ccc2F)cc1` [Compound 4, 1-[4-(6-aminopurin-9-yl)phenyl]-3-(2-fluoro-5-trifluoromethylphenyl)urea] are 49 nM and 5.7 nM.
On the same counts, the results for `Nc1ncnc2c1ncn2-c1ccc(NC(=O)Nc2cccc(OC(F)(F)F)c2)cc1` [Compound 5, 1-[4-(6-aminopurin-9-yl)phenyl]-3-(3-trifluoromethoxyphenyl)urea] are 35 nM and 5 nM.
As to `Nc1ncnc2c1ncn2-c1ccc(NC(=O)Nc2cc(C(F)(F)F)ccn2)cc1` [Compound 6, 1-[4-(6-aminopurin-9-yl)phenyl]-3-(4-trifluoromethylpyridin-2-yl)urea], the IC50 against Tie-2 kinase amounted to 100 nM; against VEGFR (KDR) it was 4.6 nM.
On the same counts, the results for `Nc1ncnc2c1ncn2-c1ccc(NC(=O)Nc2cc(C(F)(F)F)ccc2-n2cncn2)cc1` [Compound 9, 1-[4-(6-aminopurin-9-yl)phenyl]-3-(2-[1,2,4]triazol-1-yl-5-trifluoromethylphenyl)urea] are 12.5 nM and 7.7 nM.
For `Nc1ncnc2c1ncn2-c1ccc(NC(=O)Nc2ccc(OC3CCNC3)c(C(F)(F)F)c2)cc1` (stereo not shown) [Compound 11, 1-[4-(6-aminopurin-9-yl)phenyl]-3-[4-(pyrrolidin-3-yloxy)-3-trifluoromethylphenyl]urea], the IC50 against Tie-2 kinase came to 110 nM; against VEGFR (KDR), 4.4 nM.
In the case of `CC(C)(C)c1cc(NC(=O)Nc2ccc(-n3cnc4c(N)ncnc43)cc2)no1` [Compound 15, 1-[4-(6-aminopurin-9-yl)phenyl]-3-(5-tert-butylisoxazol-3-yl)urea], the IC50 is 19.5 nM against Tie-2 kinase and 2 nM against VEGFR (KDR).
